Earlier results as cited in US7709647B2, “Tetrahydroquinoline cannabinoid receptor modulators” (Bristol-Myers Squibb Company, priority 2005, dated 2010).

What was measured:
[1] = chronic administration for two weeks
[2] = system: human subjects; details: 16 week trial period, published Phase IIb data

**Q.** For `Cc1c(C(=O)NN2CCCCC2)nn(-c2ccc(Cl)cc2Cl)c1-c1ccc(I)cc1` [AM-251], which body weight [1] is on record?
**A.** substantial body weight reduction

**Q.** For `Cc1c(C(=O)NN2CCCCC2)nn(-c2ccc(Cl)cc2Cl)c1-c1ccc(Cl)cc1` [SR-141716], which body weight [2] is on record?
**A.** dose-dependently reduced body weight
